Consider 18 molecules from ChEMBL document CHEMBL4417631, “Oral peptide inhibitors of interleukin-23 receptor and their use to treat inflammatory bowel diseases” (2017).

Series [1] has as its target T1, Interleukin-23 receptor (Homo sapiens, UniProt Q5VWK5).
T1 sequence (Q5VWK5 whole entry): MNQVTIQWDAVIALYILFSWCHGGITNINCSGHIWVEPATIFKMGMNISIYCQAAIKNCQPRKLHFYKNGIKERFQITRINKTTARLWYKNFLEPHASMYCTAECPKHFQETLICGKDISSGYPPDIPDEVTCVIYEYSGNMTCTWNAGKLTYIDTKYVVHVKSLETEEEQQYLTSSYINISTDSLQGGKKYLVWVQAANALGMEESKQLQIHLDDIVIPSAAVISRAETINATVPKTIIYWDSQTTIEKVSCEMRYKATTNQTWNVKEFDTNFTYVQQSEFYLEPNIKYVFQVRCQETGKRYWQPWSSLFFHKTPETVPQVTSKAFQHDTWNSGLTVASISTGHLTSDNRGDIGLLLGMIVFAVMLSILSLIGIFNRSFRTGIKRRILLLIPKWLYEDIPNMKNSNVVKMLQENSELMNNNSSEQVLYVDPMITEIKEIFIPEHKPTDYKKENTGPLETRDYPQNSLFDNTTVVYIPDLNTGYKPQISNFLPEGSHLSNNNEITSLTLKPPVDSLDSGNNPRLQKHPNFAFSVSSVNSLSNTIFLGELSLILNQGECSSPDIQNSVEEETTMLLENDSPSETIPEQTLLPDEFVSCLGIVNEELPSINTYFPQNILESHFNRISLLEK
In words: Inhibition of interleukin-23 binding to human interleukin-23 receptor incubated for 2 hrs by competitive binding ELISA. On the technique in general: An ELISA detects its analyte on a solid surface through an enzyme-linked reagent.

Series [2] is described as follows: Half life in simulated intestinal fluid at 20 uM by LC-MS/MS analysis. Format: ADME.
Series [3] deals with T1, Interleukin-23 receptor. Description: Inhibition of interleukin-23 receptor in human DB cells assessed as reduction in IL-23-stimulated STAT3 phosphorylation incubated for 30 mins by HTRF assay. Format: cell-based. In general terms: Time-resolved FRET reads energy transfer from a long-lived donor to a nearby acceptor.

*1 amine or outer side, *2 acyl side, *3 side chain or, on linkers, in order; H or OH if unused. Where a SMILES comes first, the peptide text is derived from it. Bridges are numbered along the chain shown (N, C = ends). [ ]: non-standard residue; d: D form. Abu(4-yl) = O=C([C@H](CC[*:3])N[*:1])[*:2]; Pen = CC(C)(S)[C@H](N)C(=O)O; hLeu = CC(C)CC[C@H](N)C(=O)O

In the case of `CC(=O)NC[C@H](NC(=O)[C@H](CCCN)NC(=O)[C@H](Cc1ccc2ccccc2c1)NC(=O)[C@H](Cc1ccc(OCCN)cc1)NC(=O)[C@@H]1CSCC[C@H](NC(C)=O)C(=O)N[C@@H](CCC(N)=O)C(=O)N[C@@H]([C@@H](C)O)C(=O)N[C@@H](Cc2c[nH]c3ccccc23)C(=O)N[C@@H](CCC(N)=O)C(=O)N1)C(=O)N[C@@H](CC(N)=O)C(=O)NCC(N)=O`, the IC50 (as a rule, the point on the concentration scale where inhibition reaches its midpoint) in series [1] was 25 to 100 nM. Also, the half-life – broadly, how long it takes for the measured level to halve – at 20 µM in series [2] is less than 1 h.

`CCCCCCCC[C@H](NC(=O)[C@H](Cc1ccc(OC)cc1)NC(=O)[C@@H]1CSCC[C@H](NC(C)=O)C(=O)N[C@@H](CCC(N)=O)C(=O)N[C@@H]([C@@H](C)O)C(=O)N[C@@H](Cc2c[nH]c3ccccc23)C(=O)N[C@@H](CCC(N)=O)C(=O)N1)C(=O)N[C@@](C)(CCCCN)C(=O)N[C@@H](CCCCNC(C)=O)C(=O)N[C@@H](CC(N)=O)C(=O)NCC(N)=O` returned an IC50 in series [1] of 10000 nM. Further, the half-life at 20 µM in series [2] was 1 to 2 h.

The molecule `CC(=O)N[C@H](C(=O)N[C@@H](CCC(N)=O)C(=O)N[C@H](C(=O)N[C@@H](Cc1c[nH]c2ccccc12)C(=O)N[C@@H](CCC(N)=O)C(=O)N[C@H](C(=O)N[C@@H](Cc1ccc(O)cc1)C(=O)N[C@@H](Cc1c[nH]c2ccccc12)C(=O)N[C@H](CC(N)=O)C(=O)N[C@@H](CCC(=O)O)C(=O)N[C@@H](CC(N)=O)C(=O)NCC(N)=O)C(C)(C)S)[C@@H](C)O)C(C)(C)S` registered an IC50 in series [1] of 1000 to 10000 nM. Moreover, in series [2], the half-life at 20 µM was 3 to 6 h.

With `CC(=O)N[C@H]1CCSC[C@@H](C(=O)N[C@@H](Cc2ccc(O)cc2)C(=O)N[C@@H](Cc2c[nH]c3ccccc23)C(=O)N[C@@H](CCC(C)C)C(=O)N[C@@H](CCC(=O)O)C(=O)N[C@@H](CC(N)=O)C(=O)NCC(N)=O)NC(=O)[C@H](CCC(N)=O)NC(=O)[C@H](Cc2c[nH]c3ccccc23)NC(=O)[C@H]([C@@H](C)O)NC(=O)[C@H](CCC(N)=O)NC1=O`, the IC50 in series [1] lay in the range of 25 to 100 nM; in series [3], 10 to 25 nM. For the same molecule, the half-life at 20 µM in series [2] is less than 1 h.

In the case of `COc1ccc(CC[C@H](NC(=O)[C@@H]2CSCC[C@H](NC(C)=O)C(=O)N[C@@H](CCC(N)=O)C(=O)N[C@@H]([C@@H](C)O)C(=O)N[C@@H](Cc3c[nH]c4ccccc34)C(=O)N[C@@H](CCC(N)=O)C(=O)N2)C(=O)N[C@@H](Cc2ccc3ccccc3c2)C(=O)N[C@@](C)(CCCCN)C(=O)N[C@@H](CCCCNC(C)=O)C(=O)N[C@@H](CC(N)=O)C(=O)NCC(N)=O)cc1OC`, the IC50 in series [1] was more than 1000 nM. The molecule also had a half-life at 20 µM in series [2] of 3 to 6 h.

As to `CCCCCCCC[C@H](NC(=O)[C@@H]1CSCC[C@H](NC(C)=O)C(=O)N[C@@H](CCC(N)=O)C(=O)N[C@@H]([C@@H](C)O)C(=O)N[C@@H](Cc2c[nH]c3ccccc23)C(=O)N[C@@H](CCC(N)=O)C(=O)N1)C(=O)N[C@@H](Cc1ccc2ccccc2c1)C(=O)N[C@@](C)(CCCCN)C(=O)N[C@@H](CCCCNC(C)=O)C(=O)N[C@@H](CC(N)=O)C(=O)NCC(N)=O`, the IC50 in series [1] came out at 10000 nM. In series [2], this molecule showed a half-life at 20 µM of less than 1 h.

In turn, `CC(=O)NCCCC[C@H](NC(=O)[C@](C)(CCCCN)NC(=O)[C@H](Cc1ccc2ccccc2c1)NC(=O)[C@H](Cc1c(C)cc(O)cc1C)NC(=O)[C@@H]1CSCC[C@H](NC(C)=O)C(=O)N[C@@H](CCC(N)=O)C(=O)N[C@@H]([C@@H](C)O)C(=O)N[C@@H](Cc2c[nH]c3ccccc23)C(=O)N[C@@H](CCC(N)=O)C(=O)N1)C(=O)N[C@@H](CC(N)=O)C(=O)NCC(N)=O` displayed a 50% inhibitory concentration (IC50) in series [1] of more than 1000 nM. In addition, in series [2], the half-life at 20 µM was more than 6 h.

Take `CC(=O)NC[C@H](NC(=O)[C@H](CCCN)NC(=O)[C@H](Cc1c[nH]c2ccccc12)NC(=O)[C@H](Cc1ccc(OCCN)cc1)NC(=O)[C@@H]1CSCC[C@H](NC(C)=O)C(=O)N[C@@H](CCC(N)=O)C(=O)N[C@@H]([C@@H](C)O)C(=O)N[C@@H](Cc2c[nH]c3ccccc23)C(=O)N[C@@H](CCC(N)=O)C(=O)N1)C(=O)N[C@@H](CC(N)=O)C(=O)NCC(N)=O`: the IC50 in series [1] fell in the range of 100 to 1000 nM. Besides, the half-life at 20 µM in series [2] was less than 1 h.

The molecule `CC(=O)N[C@H]1CCSC(C)(C)[C@@H](C(=O)N[C@@H](Cc2ccc(O)cc2)C(=O)N[C@@H](Cc2c[nH]c3ccccc23)C(=O)N[C@@H](CCC(C)C)C(=O)N[C@@H](CCC(=O)O)C(=O)N[C@@H](CC(N)=O)C(=O)NCC(N)=O)NC(=O)[C@H](CCC(N)=O)NC(=O)[C@H](Cc2c[nH]c3ccccc23)NC(=O)[C@H]([C@@H](C)O)NC(=O)[C@H](CCC(N)=O)NC1=O` (Ac-[Abu(4-yl)]QTWQ[Pen]YW[hLeu]ENG-NH2; thioether 1-6) had an IC50 in series [1] of more than 1000 nM. In series [2], this molecule registered a half-life at 20 µM of less than 1 h.

Turning to `COc1ccc(C[C@H](NC(=O)[C@@H]2CSCC[C@H](NC(C)=O)C(=O)N[C@@H](CCC(N)=O)C(=O)N[C@@H]([C@@H](C)O)C(=O)N[C@@H](Cc3c[nH]c4ccccc34)C(=O)N[C@@H](CCC(N)=O)C(=O)N2)C(=O)N[C@@H](Cc2ccc3ccccc3c2)C(=O)N[C@@H](CCCN)C(=O)N[C@@H](CCCCNC(C)=O)C(=O)N[C@@H](CC(N)=O)C(=O)NCC(N)=O)cc1`, in series [1], the IC50 lay within 100 to 1000 nM. In series [2], this molecule came in with a half-life at 20 µM of more than 6 h.

Molecule `CC(=O)N[C@@H](CS)C(=O)N[C@@H](CCC(N)=O)C(=O)N[C@H](C(=O)N[C@@H](Cc1c[nH]c2ccccc12)C(=O)N[C@@H](CCC(N)=O)C(=O)N[C@H](C(=O)N[C@@H](Cc1ccc(O)cc1)C(=O)N[C@@H](Cc1c[nH]c2ccccc12)C(=O)N[C@H](CC(N)=O)C(=O)N[C@@H](CCC(=O)O)C(=O)N[C@@H](CC(N)=O)C(=O)NCC(N)=O)C(C)(C)S)[C@@H](C)O` came in with an IC50 in series [1] of 1000 to 10000 nM. Besides, the half-life at 20 µM in series [2] was less than 1 h.

Take `CC(=O)N[C@H](C(=O)N[C@@H](CCC(N)=O)C(=O)N[C@H](C(=O)N[C@@H](Cc1c[nH]c2ccccc12)C(=O)N[C@@H](CCC(N)=O)C(=O)N[C@H](C(=O)N[C@@H](Cc1ccc(O)cc1)C(=O)N[C@@H](Cc1c[nH]c2ccccc12)C(=O)N(C)[C@@H](CCCNC(=N)N)C(=O)N[C@@H](CCC(=O)O)C(=O)N[C@@H](CC(N)=O)C(=O)NCC(N)=O)C(C)(C)S)[C@@H](C)O)C(C)(C)S`: the IC50 in series [1] was more than 30000 nM. The molecule also registered a half-life at 20 µM in series [2] of 2 to 3 h.

With `CC(=O)N[C@H]1CCSC[C@H](C(=O)N[C@@H](Cc2ccc(O)cc2)C(=O)N[C@@H](Cc2c[nH]c3ccccc23)C(=O)N[C@@H](CCC(C)C)C(=O)N[C@@H](CCC(=O)O)C(=O)N[C@@H](CC(N)=O)C(=O)NCC(N)=O)NC(=O)[C@H](CCC(N)=O)NC(=O)[C@H](Cc2c[nH]c3ccccc23)NC(=O)[C@H]([C@@H](C)O)NC(=O)[C@H](CCC(N)=O)NC1=O`, in series [1], the IC50 is more than 1000 nM. Besides, the half-life at 20 µM in series [2] was 1 to 2 h.

`CC(=O)N[C@H]1CCSC[C@@H](C(=O)N[C@@H](Cc2ccc(OCCN)cc2)C(=O)N[C@@H](Cc2c[nH]c3ccccc23)C(=O)N[C@@H](CCCN)C(=O)N[C@@H](CCC(=O)O)C(=O)N[C@@H](CC(N)=O)C(=O)NCC(N)=O)NC(=O)[C@H](CCC(N)=O)NC(=O)[C@H](Cc2c[nH]c3ccccc23)NC(=O)[C@H]([C@@H](C)O)NC(=O)[C@H](CCC(N)=O)NC1=O` had an IC50 in series [1] of 25 to 100 nM. This molecule came in with a half-life at 20 µM in series [2] of less than 1 h.

Consider `CC(=O)N[C@@H](CS)C(=O)N[C@@H](C)C(=O)N[C@@H](CC(=O)O)C(=O)N[C@@H](Cc1c[nH]c2ccccc12)C(=O)N[C@H](C(=O)N[C@@H](CS)C(=O)N[C@@H](Cc1ccc(O)cc1)C(=O)N[C@@H](Cc1c[nH]c2ccccc12)C(=O)N[C@@H](Cc1cnc[nH]1)C(=O)N[C@H](C(=O)N[C@@H](Cc1ccccc1)C(=O)NCC(=O)N[C@H](CCCCN)C(=O)O)[C@@H](C)O)C(C)C`, for which the IC50 in series [1] and in series [3] was 100 to 1000 nM in each case.

Regarding `COc1ccc(C[C@H](NC(=O)[C@@H](NC(=O)[C@H](CCC(N)=O)NC(=O)[C@H](Cc2c[nH]c3ccccc23)NC(=O)[C@@H](NC(=O)[C@H](CCC(N)=O)NC(=O)[C@@H](NC(C)=O)C(C)(C)S)[C@@H](C)O)C(C)(C)S)C(=O)N[C@@H](Cc2ccc3ccccc3c2)C(=O)N[C@@](C)(CCCN)C(=O)N[C@@H](CCCCNC(C)=O)C(=O)N[C@@H](CC(N)=O)C(=O)NCC(N)=O)cc1`, the IC50 in series [1] was 100 to 1000 nM; in series [3], 25 to 100 nM.

In series [1], `CC(=O)N[C@H]1CCSC[C@@H](C(=O)N[C@@H](Cc2ccc(OCCN)cc2)C(=O)N[C@@H](Cc2c[nH]c3ccccc23)C(=O)N[C@@H](CCCN)C(=O)N[C@@H](CN)C(=O)N[C@@H](CC(N)=O)C(=O)NCC(N)=O)NC(=O)[C@H](CCC(N)=O)NC(=O)[C@H](Cc2c[nH]c3ccccc23)NC(=O)[C@H]([C@@H](C)O)NC(=O)[C@H](CCC(N)=O)NC1=O` had an IC50 of 100 to 1000 nM. Further, the half-life at 20 µM in series [2] is less than 1 h.

In the case of `CC(=O)NCCCC[C@H](NC(=O)[C@](C)(CCCCN)NC(=O)[C@H](Cc1ccc2ccccc2c1)NC(=O)[C@H](Cc1ccc(Oc2ccccc2)cc1)NC(=O)[C@@H]1CSCC[C@H](NC(C)=O)C(=O)N[C@@H](CCC(N)=O)C(=O)N[C@@H]([C@@H](C)O)C(=O)N[C@@H](Cc2c[nH]c3ccccc23)C(=O)N[C@@H](CCC(N)=O)C(=O)N1)C(=O)N[C@@H](CC(N)=O)C(=O)NCC(N)=O`, the IC50 in series [1] was in the range of 100 to 1000 nM. The half-life at 20 µM in series [2] is more than 6 h.
